{"source": "PubChem BioAssay AID1845199", "about": "(Molecular Pharmacology Branch, DTP, NCI, 2023);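 further: spheroids exposed to compounds for 7 days before viability read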", "tested_on": "556581-035-R-J1 tumor spheroid viability, % test/control", "assay": "Anticancer human tumor 556581-035-R-J1 patient-derived ovarian carcinoma cell line growth inhibition", "conditions": "spheroids with HUVEC and MSC; for IC50: curve of first compound; for viability, T/C: stronger effect = lower value", "how_it_was_run": "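Single agents and combinations were tested on spheroids built from tumor cells plus HUVEC and hMSC, at half-log dilutions starting at or near clinical Cmax, else 10 microM; final DMSO 0.25% (v/v).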", "data": [{"smiles": "Cc1cc(C)c(CNC(=O)c2cc(-c3ccc(CN4CCOCC4)cc3)cc3c2cnn3C2CCCC2)c(=O)[nH]1", "note": "+ COc1cc2c(cc1O)CCNC21CSC2c3c(OC(C)=O)c(C)c4c(c3C(COC1=O)N1C(O)C3Cc5cc(C)c(OC)c(O)c5C(C21)N3C)OCO4", "values": [{"measurement": "IC50", "setting": "second compound 30 pM", "value": "> 10", "unit": "µM"}, {"measurement": "IC50", "setting": "second compound 94.9 pM", "value": "> 10", "unit": "µM"}, {"measurement": "IC50", "setting": "second compound 0.0003 µM", "value": "> 10", "unit": "µM"}, {"measurement": "IC50", "setting": "second compound 0.000949 µM", "value": "< 0.0316", "unit": "µM"}, {"measurement": "IC50", "setting": "second compound 0.003 µM", "value": "< 0.0316", "unit": "µM"}, {"measurement": "viability, T/C", "setting": "second compound 30 pM, first compound 0.0316 µM", "value": 100, "unit": "%"}, {"measurement": "viability, T/C", "setting": "second compound 30 pM, first compound 0.1 µM", "value": 108, "unit": "%"}, {"measurement": "viability, T/C", "setting": "second compound 30 pM, first compound 0.316 µM", "value": 105, "unit": "%"}, {"measurement": "viability, T/C", "setting": "second compound 30 pM, first compound 1 µM", "value": 117, "unit": "%"}, {"measurement": "viability, T/C", "setting": "second compound 30 pM, first compound 3.16 µM", "value": 112, "unit": "%"}, {"measurement": "viability, T/C", "setting": "second compound 30 pM, first compound 10 µM", "value": 97.5, "unit": "%"}, {"measurement": "viability, T/C", "setting": "second compound 94.9 pM, first compound 0.0316 µM", "value": 109, "unit": "%"}, {"measurement": "viability, T/C", "setting": "second compound 94.9 pM, first compound 0.1 µM", "value": 108, "unit": "%"}, {"measurement": "viability, T/C", "setting": "second compound 94.9 pM, first compound 0.316 µM", "value": 110, "unit": "%"}, {"measurement": "viability, T/C", "setting": "second compound 94.9 pM, first compound 1 µM", "value": 109, "unit": "%"}, {"measurement": "viability, T/C", "setting": "second compound 94.9 pM, first compound 3.16 µM", "value": 110, "unit": "%"}, {"measurement": "viability, T/C", "setting": "second compound 94.9 pM, first compound 10 µM", "value": 88.3, "unit": "%"}, {"measurement": "viability, T/C", "setting": "second compound 0.0003 µM, first compound 0.0316 µM", "value": 99.9, "unit": "%"}, {"measurement": "viability, T/C", "setting": "second compound 0.0003 µM, first compound 0.1 µM", "value": 100, "unit": "%"}, {"measurement": "viability, T/C", "setting": "second compound 0.0003 µM, first compound 0.316 µM", "value": 103, "unit": "%"}, {"measurement": "viability, T/C", "setting": "second compound 0.0003 µM, first compound 1 µM", "value": 103, "unit": "%"}, {"measurement": "viability, T/C", "setting": "second compound 0.0003 µM, first compound 3.16 µM", "value": 98.4, "unit": "%"}, {"measurement": "viability, T/C", "setting": "second compound 0.0003 µM, first compound 10 µM", "value": 88.3, "unit": "%"}, {"measurement": "viability, T/C", "setting": "second compound 0.000949 µM, first compound 0.0316 µM", "value": 45.2, "unit": "%"}, {"measurement": "viability, T/C", "setting": "second compound 0.000949 µM, first compound 0.1 µM", "value": 43.5, "unit": "%"}, {"measurement": "viability, T/C", "setting": "second compound 0.000949 µM, first compound 0.316 µM", "value": 46, "unit": "%"}, {"measurement": "viability, T/C", "setting": "second compound 0.000949 µM, first compound 1 µM", "value": 30.7, "unit": "%"}, {"measurement": "viability, T/C", "setting": "second compound 0.000949 µM, first compound 3.16 µM", "value": 24.5, "unit": "%"}, {"measurement": "viability, T/C", "setting": "second compound 0.000949 µM, first compound 10 µM", "value": 11.6, "unit": "%"}, {"measurement": "viability, T/C", "setting": "second compound 0.003 µM, first compound 0.0316 µM", "value": 1.01, "unit": "%"}, {"measurement": "viability, T/C", "setting": "second compound 0.003 µM, first compound 0.1 µM", "value": 0.92, "unit": "%"}, {"measurement": "viability, T/C", "setting": "second compound 0.003 µM, first compound 0.316 µM", "value": 0.9, "unit": "%"}, {"measurement": "viability, T/C", "setting": "second compound 0.003 µM, first compound 1 µM", "value": 0.75, "unit": "%"}, {"measurement": "viability, T/C", "setting": "second compound 0.003 µM, first compound 3.16 µM", "value": 0.82, "unit": "%"}, {"measurement": "viability, T/C", "setting": "second compound 0.003 µM, first compound 10 µM", "value": 1.15, "unit": "%"}]}, {"smiles": "O=C(c1cc(Cc2n[nH]c(=O)c3ccccc23)ccc1F)N1CCN(C(=O)C2CC2)CC1", "note": "+ COc1cc2c(cc1O)CCNC21CSC2c3c(OC(C)=O)c(C)c4c(c3C(COC1=O)N1C(O)C3Cc5cc(C)c(OC)c(O)c5C(C21)N3C)OCO4", "values": [{"measurement": "IC50", "setting": "second compound 30 pM", "value": "> 30", "unit": "µM"}, {"measurement": "IC50", "setting": "second compound 94.9 pM", "value": "> 30", "unit": "µM"}, {"measurement": "IC50", "setting": "second compound 0.0003 µM", "value": "> 30", "unit": "µM"}, {"measurement": "IC50", "setting": "second compound 0.000949 µM", "value": "< 0.0949", "unit": "µM"}, {"measurement": "IC50", "setting": "second compound 0.003 µM", "value": "< 0.0949", "unit": "µM"}, {"measurement": "viability, T/C", "setting": "second compound 30 pM, first compound 0.0949 µM", "value": 104, "unit": "%"}, {"measurement": "viability, T/C", "setting": "second compound 30 pM, first compound 0.3 µM", "value": 105, "unit": "%"}, {"measurement": "viability, T/C", "setting": "second compound 30 pM, first compound 0.949 µM", "value": 103, "unit": "%"}, {"measurement": "viability, T/C", "setting": "second compound 30 pM, first compound 3 µM", "value": 93.7, "unit": "%"}, {"measurement": "viability, T/C", "setting": "second compound 30 pM, first compound 9.49 µM", "value": 79.7, "unit": "%"}, {"measurement": "viability, T/C", "setting": "second compound 30 pM, first compound 30 µM", "value": 63.5, "unit": "%"}, {"measurement": "viability, T/C", "setting": "second compound 94.9 pM, first compound 0.0949 µM", "value": 98.1, "unit": "%"}, {"measurement": "viability, T/C", "setting": "second compound 94.9 pM, first compound 0.3 µM", "value": 103, "unit": "%"}, {"measurement": "viability, T/C", "setting": "second compound 94.9 pM, first compound 0.949 µM", "value": 96.2, "unit": "%"}, {"measurement": "viability, T/C", "setting": "second compound 94.9 pM, first compound 3 µM", "value": 90, "unit": "%"}, {"measurement": "viability, T/C", "setting": "second compound 94.9 pM, first compound 9.49 µM", "value": 75.6, "unit": "%"}, {"measurement": "viability, T/C", "setting": "second compound 94.9 pM, first compound 30 µM", "value": 63, "unit": "%"}, {"measurement": "viability, T/C", "setting": "second compound 0.0003 µM, first compound 0.0949 µM", "value": 89.5, "unit": "%"}, {"measurement": "viability, T/C", "setting": "second compound 0.0003 µM, first compound 0.3 µM", "value": 88.7, "unit": "%"}, {"measurement": "viability, T/C", "setting": "second compound 0.0003 µM, first compound 0.949 µM", "value": 88.6, "unit": "%"}, {"measurement": "viability, T/C", "setting": "second compound 0.0003 µM, first compound 3 µM", "value": 87.2, "unit": "%"}, {"measurement": "viability, T/C", "setting": "second compound 0.0003 µM, first compound 9.49 µM", "value": 66.8, "unit": "%"}, {"measurement": "viability, T/C", "setting": "second compound 0.0003 µM, first compound 30 µM", "value": 50.1, "unit": "%"}, {"measurement": "viability, T/C", "setting": "second compound 0.000949 µM, first compound 0.0949 µM", "value": 35, "unit": "%"}, {"measurement": "viability, T/C", "setting": "second compound 0.000949 µM, first compound 0.3 µM", "value": 27.9, "unit": "%"}, {"measurement": "viability, T/C", "setting": "second compound 0.000949 µM, first compound 0.949 µM", "value": 27.9, "unit": "%"}, {"measurement": "viability, T/C", "setting": "second compound 0.000949 µM, first compound 3 µM", "value": 23.4, "unit": "%"}, {"measurement": "viability, T/C", "setting": "second compound 0.000949 µM, first compound 9.49 µM", "value": 7.48, "unit": "%"}, {"measurement": "viability, T/C", "setting": "second compound 0.000949 µM, first compound 30 µM", "value": 1.51, "unit": "%"}, {"measurement": "viability, T/C", "setting": "second compound 0.003 µM, first compound 0.0949 µM", "value": 0.86, "unit": "%"}, {"measurement": "viability, T/C", "setting": "second compound 0.003 µM, first compound 0.3 µM", "value": 0.88, "unit": "%"}, {"measurement": "viability, T/C", "setting": "second compound 0.003 µM, first compound 0.949 µM", "value": 0.88, "unit": "%"}, {"measurement": "viability, T/C", "setting": "second compound 0.003 µM, first compound 3 µM", "value": 1.14, "unit": "%"}, {"measurement": "viability, T/C", "setting": "second compound 0.003 µM, first compound 9.49 µM", "value": 1.42, "unit": "%"}, {"measurement": "viability, T/C", "setting": "second compound 0.003 µM, first compound 30 µM", "value": 2.1, "unit": "%"}]}]}
